Assays:
healthy participants = experiment: Example 2: safety in healthy participants; format: in vivo, human
Experimental: The study comprises a screening period of maximum 28 days, and five periods during which subjects will participate from Day −1 of Period 1 to 72 hours after the AZD5055 dose in Period 5.
Period 1: On Day 1, the subjects will receive either 5 mg AZD5055 as a 20-minute IV infusion (Treatment A) in an overnight fasted state or AZD5055 20 mg as oral suspension (Treatment B) in an overnight fasted state.
Period 2: On Day 1 (Study Day 4), the subjects will receive 20 mg AZD5055 film-coated tablet (Treatment C) in an overnight fasted state.
Period 3: On Day 1 (Study Day 8) the subjects will receive a standardized high-fat breakfast 30 minutes before 20 mg AZD5055 administered as film-coated tablet (Treatment D).
Period 4: On Study Day 10, three days prior to Day 1, 20 mg rabeprazole will be administered twice daily. On Day 1 (Study Day 13), 20 mg AZD5055 film-coated tablet will be administered together with rabeprazole and rabeprazole dosing will continue twice daily (Treatment E).
Period 5: On Day 1 (Study Day 17) the participants will receive a low-fat breakfast 30 minutes before 20 mg AZD5055 film-coated tablet administered together with 20 mg rabeprazole.
Rabeprazole will continue twice daily, the last dose is on the evening of Study Day 18 (Treatment F).
Safety Variables—Safety endpoints included adverse events (AEs), clinical laboratory assessments (hematology, clinical chemistry, urinalysis, and urinary albumin:creatinine ratios), vital signs and peripheral oxygen saturation (SpO2), standard 12-lead electrocardiogram, (ECG), telemetry, and physical examinations.
All safety data (scheduled and unscheduled) were presented in the data listings. Continuous variables were summarized using descriptive statistics (n, mean, SD, min, median, max) by treatment. Categorical variables were summarized in frequency tables (frequency and proportion) by treatment/dose group. The analysis of the safety variables was based on the safety analysis set.

[1] = cited from earlier work
[2] = excipient compatibility study; format: physicochemical
Text: In some embodiments, the diluent is a sugar or sugar-containing, except mannitol. For example, the diluent may be lactose, dextrin, glucose, sucrose, sorbitol. In some embodiments, the diluent is microcrystalline cellulose.
In some embodiments, the lubricant/glidant is glyceryl behenate.

**Q.** What does the source list for `Cc1cc(-c2nccc3c2ccn3CC(=O)Nc2ccc(-c3cnccn3)cn2)ccn1` [AZD5055, 2-[4-(2-methyl-4-pyridyl)pyrrolo[3,2-c]pyridin-1-yl]-N-(5-pyrazin-2-yl-2-pyridyl)acetamide]?
**A.** participants with SAE (transaminases increased), possibly related (healthy participants; Period 3 (tablet, high-fat fed)): One; AEs leading to discontinuation, events (healthy participants; after dosing in Period 3): 2 events; participants with AE leading to discontinuation (healthy participants; after dosing in Period 3, transaminases increased and non-cardiac chest pain): Two; participants with at least 1 AE of Grade 1 intensity (healthy participants; in total): 8 participants; participants with at least 1 AE of Grade 2 intensity (healthy participants; in total): 4 participants; AEs Grade 3 or higher (healthy participants; in vivo): No AEs Grade 3 or higher; deaths (healthy participants; in vivo): no deaths; laboratory parameters, vital signs, ECGs, physical examination (healthy participants; in vivo): No clinically relevant trends; AEs possibly related to AZD5055, events (healthy participants; overall): 9 events; any AE, events (healthy participants; overall): 20 events; participants with any AE (healthy participants; overall): 11 participants; participants with any AE possibly related to AZD5055 (healthy participants; overall): Five; tolerability (healthy participants; single oral and IV doses): generally well tolerated; solubility [1]: pH dependent; degradation products with silicon dioxide and magnesium stearate ([2]; glidant and lubricant respectively): additional amounts of degradation products were identified; compatibility with mannitol ([2]; mannitol as diluent): not compatible; degradation products with mannitol ([2]; mannitol as diluent): additional amounts of degradation products were identified; compatibility with silicon dioxide and magnesium stearate ([2]; silicon dioxide as glidant, magnesium stearate as lubricant): not compatible

— patent publication US20260345593A1, “ORAL FORMULATION OF N-PYRIDINYL ACETAMIDE DERIVATIVE FOR TREATING INTERSTITIAL LUNG DISEASE” (AstraZeneca AB, priority 2022, published 2026)
